ChEMBL document CHEMBL1158249, “Cytotoxic falcarinol oxylipins from Dendropanax arboreus” (J Nat Prod, 1996)
The source made the active and inactive calls. The calls are words filed in the database; no cut-off is given here.

How the values were obtained:
[1] = tested on: Mus musculus; test: Toxicity against human LOX cells xenografted athymic nude mouse assessed as median day of death at 0.17 mg/kg, ip administered daily for 5 days; format: organism-based; parameters: dose 0.17 mg/kg, route intraperitoneal; settings: in vivo, 120 h
[2] = tested on: Mus musculus; test: Toxicity against human LOX cells xenografted athymic nude mouse assessed as median day of death at 0.26 mg/kg, ip administered daily for 5 days; format: organism-based; parameters: dose 0.26 mg/kg, route intraperitoneal; settings: in vivo, 120 h
[3] = Antitumor activity against human LOX cells xenografted athymic nude mouse assessed as increase in life span at 0.88 mg/kg, ip administered daily for 5 days; format: functional; settings: route intraperitoneal
[4] = tested on: LOX; test: Antitumor activity against human LOX cells xenografted athymic nude mouse at 0.59 mg/kg, ip administered daily for 5 days; format: functional, organism-based; parameters: dose 0.59 mg/kg
[5] = tested on: Mus musculus; test: Toxicity against human LOX cells xenografted athymic nude mouse assessed as median day of death at 0.88 mg/kg, ip administered daily for 5 days; format: organism-based; parameters: dose 0.88 mg/kg, route intraperitoneal; settings: in vivo, 120 h
[6] = tested on: Mus musculus; test: Toxicity against human LOX cells xenografted athymic nude mouse assessed as median day of death at 0.59 mg/kg, ip administered daily for 5 days; format: organism-based; parameters: dose 0.59 mg/kg, route intraperitoneal; settings: in vivo, 120 h
[7] = tested on: Mus musculus; test: Toxicity against human LOX cells xenografted athymic nude mouse assessed as median day of death at 3.0 mg/kg, ip administered daily for 5 days; format: organism-based; parameters: dose 3 mg/kg, route intraperitoneal; settings: in vivo, 120 h
[8] = Antitumor activity against human LOX cells xenografted athymic nude mouse assessed as increase in life span at 0.26 mg/kg, ip administered daily for 5 days; format: functional; settings: route intraperitoneal
[9] = tested on: LOX; test: Antitumor activity against human LOX cells xenografted athymic nude mouse at 2.0 mg/kg, ip administered daily for 5 days; format: functional, organism-based; parameters: dose 2 mg/kg
[10] = tested on: LOX; test: Antitumor activity against human LOX cells xenografted athymic nude mouse at 0.88 mg/kg, ip administered daily for 5 days; format: functional, organism-based; parameters: dose 0.88 mg/kg
[11] = Antitumor activity against human LOX cells xenografted athymic nude mouse assessed as increase in life span at 2.0 mg/kg, ip administered daily for 5 days; format: functional; settings: route intraperitoneal
[12] = Cytotoxicity against human NCI60 cells; format: functional
[13] = tested on: Mus musculus; test: Toxicity against human LOX cells xenografted athymic nude mouse assessed as median day of death at 1.33 mg/kg, ip administered daily for 5 days; format: organism-based; parameters: dose 1.33 mg/kg, route intraperitoneal; settings: in vivo, 120 h
[14] = Antitumor activity against human LOX cells xenografted athymic nude mouse assessed as increase in life span at 1.33 mg/kg, ip administered daily for 5 days; format: functional; settings: route intraperitoneal
[15] = tested on: LOX; test: Antitumor activity against human LOX cells xenografted athymic nude mouse at 0.17 mg/kg, ip administered daily for 5 days; format: functional, organism-based; parameters: dose 0.17 mg/kg
[16] = Antitumor activity against human LOX cells xenografted athymic nude mouse assessed as increase in life span at 0.59 mg/kg, ip administered daily for 5 days; format: functional; settings: route intraperitoneal
[17] = Antitumor activity against human LOX cells xenografted athymic nude mouse assessed as increase in life span at 3.0 mg/kg, ip administered daily for 5 days; format: functional; settings: route intraperitoneal
[18] = tested on: Mus musculus; test: Toxicity against human LOX cells xenografted athymic nude mouse assessed as median day of death at 2.0 mg/kg, ip administered daily for 5 days; format: organism-based; parameters: dose 2 mg/kg, route intraperitoneal; settings: in vivo, 120 h
[19] = tested on: Mus musculus; test: Toxicity against human LOX cells xenografted athymic nude mouse assessed as median day of death at 0.39 mg/kg, ip administered daily for 5 days; format: organism-based; parameters: dose 0.39 mg/kg, route intraperitoneal; settings: in vivo, 120 h
[20] = tested on: LOX; test: Antitumor activity against human LOX cells xenografted athymic nude mouse at 0.26 mg/kg, ip administered daily for 5 days; format: functional, organism-based; parameters: dose 0.26 mg/kg
[21] = tested on: LOX; test: Antitumor activity against human LOX cells xenografted athymic nude mouse at 1.33 mg/kg, ip administered daily for 5 days; format: functional, organism-based; parameters: dose 1.33 mg/kg
[22] = tested on: LOX; test: Antitumor activity against human LOX cells xenografted athymic nude mouse at 0.39 mg/kg, ip administered daily for 5 days; format: functional, organism-based; parameters: dose 0.39 mg/kg
[23] = tested on: LOX; test: Antitumor activity against human LOX cells xenografted athymic nude mouse at 3.0 mg/kg, ip administered daily for 5 days; format: functional, organism-based; parameters: dose 3 mg/kg
[24] = tested on: LOX; test: Antitumor activity against human LOX cells xenografted athymic nude mouse at 14.06 mg/kg, ip administered daily for 5 days; format: functional, organism-based; parameters: dose 14.06 mg/kg
[25] = tested on: Mus musculus; test: Toxicity against human LOX cells xenografted athymic nude mouse assessed as median day of death at 1.76 mg/kg, ip administered daily for 5 days; format: organism-based; parameters: dose 1.76 mg/kg, route intraperitoneal; settings: in vivo, 120 h
[26] = tested on: Mus musculus; test: Toxicity against human LOX cells xenografted athymic nude mouse assessed as median day of death at 225 mg/kg, ip administered daily for 5 days; format: organism-based; parameters: dose 225 mg/kg, route intraperitoneal; settings: in vivo, 120 h
[27] = tested on: LOX; test: Antitumor activity against human LOX cells xenografted athymic nude mouse at 225 mg/kg, ip administered daily for 5 days; format: functional, organism-based; parameters: dose 225 mg/kg
[28] = tested on: Mus musculus; test: Toxicity against human LOX cells xenografted athymic nude mouse assessed as median day of death at 7.03 mg/kg, ip administered daily for 5 days; format: organism-based; parameters: dose 7.03 mg/kg, route intraperitoneal; settings: in vivo, 120 h
[29] = tested on: LOX; test: Antitumor activity against human LOX cells xenografted athymic nude mouse at 3.51 mg/kg, ip administered daily for 5 days; format: functional, organism-based; parameters: dose 3.51 mg/kg
[30] = tested on: LOX; test: Antitumor activity against human LOX cells xenografted athymic nude mouse at 7.03 mg/kg, ip administered daily for 5 days; format: functional, organism-based; parameters: dose 7.03 mg/kg
[31] = tested on: Mus musculus; test: Toxicity against human LOX cells xenografted athymic nude mouse assessed as median day of death at 3.51 mg/kg, ip administered daily for 5 days; format: organism-based; parameters: dose 3.51 mg/kg, route intraperitoneal; settings: in vivo, 120 h
[32] = tested on: Mus musculus; test: Toxicity against human LOX cells xenografted athymic nude mouse assessed as median day of death at 56.25 mg/kg, ip administered daily for 5 days; format: organism-based; parameters: dose 56.25 mg/kg, route intraperitoneal; settings: in vivo, 120 h
[33] = tested on: LOX; test: Antitumor activity against human LOX cells xenografted athymic nude mouse at 56.25 mg/kg, ip administered daily for 5 days; format: functional, organism-based; parameters: dose 56.25 mg/kg
[34] = tested on: Mus musculus; test: Toxicity against human LOX cells xenografted athymic nude mouse assessed as median day of death at 14.06 mg/kg, ip administered daily for 5 days; format: organism-based; parameters: dose 14.06 mg/kg, route intraperitoneal; settings: in vivo, 120 h
[35] = Antitumor activity against human LOX cells xenografted athymic nude mouse assessed as increase in life span at 0.17 mg/kg, ip administered daily for 5 days; format: functional; settings: route intraperitoneal
[36] = tested on: Mus musculus; test: Toxicity against human LOX cells xenografted athymic nude mouse assessed as median day of death at 112.5 mg/kg, ip administered daily for 5 days; format: organism-based; parameters: dose 112.5 mg/kg, route intraperitoneal; settings: in vivo, 120 h
[37] = tested on: Mus musculus; test: Toxicity against human LOX cells xenografted athymic nude mouse assessed as median day of death at 28.12 mg/kg, ip administered daily for 5 days; format: organism-based; parameters: dose 28.12 mg/kg, route intraperitoneal; settings: in vivo, 120 h
[38] = tested on: LOX; test: Antitumor activity against human LOX cells xenografted athymic nude mouse at 28.12 mg/kg, ip administered daily for 5 days; format: functional, organism-based; parameters: dose 28.12 mg/kg
[39] = tested on: LOX; test: Antitumor activity against human LOX cells xenografted athymic nude mouse at 1.76 mg/kg, ip administered daily for 5 days; format: functional, organism-based; parameters: dose 1.76 mg/kg
[40] = tested on: LOX; test: Antitumor activity against human LOX cells xenografted athymic nude mouse at 112.5 mg/kg, ip administered daily for 5 days; format: functional, organism-based; parameters: dose 112.5 mg/kg
[41] = Antitumor activity against human LOX cells xenografted athymic nude mouse assessed as increase in life span at 1.76 mg/kg, ip administered daily for 5 days; format: functional; settings: route intraperitoneal
[42] = tested on: Mus musculus; test: Toxicity against human LOX cells xenografted athymic nude mouse assessed as median day of death at 6.0 mg/kg, ip administered daily for 5 days; format: organism-based; parameters: dose 6 mg/kg, route intraperitoneal; settings: in vivo, 120 h
[43] = tested on: LOX; test: Antitumor activity against human LOX cells xenografted athymic nude mouse at 6.0 mg/kg, ip administered daily for 5 days; format: functional, organism-based; parameters: dose 6 mg/kg

Work on C=CCCCCC/C=C\CC#CC#C[C@@H](O)C=C yielded an Activity [1] of 15 days, an Activity [2] of 18 days and an Activity [3] of 13%. For the same compound, the Activity [4] was “inactive”, the Activity [5] was 15 days and the Activity [6] was 15 days. The Activity [7] was 18 days, the Activity [8] was 20% and the Activity [9] was “inactive”. For the same compound, the Activity [10] was “inactive”, the Activity [11] was 27% and the GI50 [12] was 400 nM. The LC50 [12] was 4800 nM, the TGI [12] was 1300 nM and the Activity [13] was 15 days. For the same compound, the Activity [14] was 20%, the Activity [15] was “inactive” and the Activity [16] was 20%. The Activity [17] was 47%, the Activity [18] was 16 days and the Activity [19] was 15 days. For the same compound, the Activity [20] was “inactive”, the Activity [21] was “inactive” and the Activity [22] was “inactive”. The Activity [23] was “inactive”.
For C=C[C@H](O)C#CC#CC/C=C\CCCCCCC [FALCARINOL], the Activity [24] was “Active”, the Activity [25] was 22 days and the Activity [1] was 21 days. For the same compound, the Activity [26] was 2 days, the Activity [3] was 5% and the Activity [27] was “Active”. The Activity [28] was 5.5 days, the Activity [4] was “inactive” and the Activity [5] was 22 days. The Activity [6] was 22.5 days, the Activity [29] was “Active” and the Activity [30] was “Active”. For the same compound, the Activity [31] was 6.5 days, the Activity [7] was 20 days and the Activity [32] was 3 days. The Activity [33] was “Active”, the Activity [9] was “inactive” and the Activity [10] was “inactive”. For the same compound, the Activity [11] was 7%, the GI50 [12] was 220 nM and the LC50 [12] was 3800 nM. It also gave a TGI [12] of 760 nM, an Activity [13] of 20 days and an Activity [34] of 4.5 days. For the same compound, the Activity [15] was “inactive”, the Activity [35] was 5% and the Activity [16] was 13%. For the same compound, the Activity [17] was 13%, the Activity [18] was 19.5 days and the Activity [19] was 19 days. For the same compound, the Activity [36] was 3 days, the Activity [37] was 4 days and the Activity [21] was “inactive”. The Activity [22] was “inactive”, the Activity [23] was “inactive” and the Activity [38] was “Active”. For the same compound, the Activity [39] was “inactive”, the Activity [40] was “Active” and the Activity [41] was 5%.
For C=C[C@@H](O)C#CC#C[C@@H](O)/C=C\CCCCCCC [FALCARINDIOL], the GI50 [12] was 660 nM and the TGI [12] was 2200 nM.
C=CCCCCCC(O)/C=C/C#CC#C[C@@H](O)C=C (stereo not given in full) [DENDROARBOREOL B] gave a GI50 [12] of 500 nM, an LC50 [12] of 7600 nM and a TGI [12] of 1900 nM.
In the case of C=C[C@H](O)C#CC#C/C=C/C(O)CCCCCCC (stereo not given in full), the GI50 [12] is reported as 440 nM, the LC50 [12] is reported as 4700 nM and the TGI [12] is reported as 1400 nM.
Compound C=CCCCCC/C=C\[C@H](O)C#CC#C[C@@H](O)CC [DENDROARBOREOL A] has a GI50 [12] of 4600 nM, an LC50 [12] of 25000 nM and a TGI [12] of 14000 nM.
With C=CCCCCC/C=C\[C@H](O)C#CC#C[C@@H](O)C=C the Activity [42] was 15 days, the Activity [2] was 15 days and the Activity [4] was “inactive”. It also gave an Activity [5] of 14 days, an Activity [6] of 15 days and an Activity [7] of 14.5 days. The Activity [43] was “inactive”, the Activity [9] was “inactive” and the Activity [10] was “inactive”. For the same compound, the GI50 [12] was 2100 nM, the LC50 [12] was 10000 nM and the TGI [12] was 3000 nM. It also gave an Activity [13] of 15.5 days, an Activity [14] of 3% and an Activity [18] of 14 days. The Activity [19] was 14.5 days, the Activity [20] was “inactive” and the Activity [21] was “inactive”. For the same compound, the Activity [22] was “inactive” and the Activity [23] was “inactive”.
